Laboratory results taken from US9145425B2, “Cephem compound having catechol group” (SHIONOGI & CO., LTD., priority 2010, dated 2015).
Values after ≈ are worked out from the molar mass of the structure shown. Structures can show the parent of a compound that is named as a salt. Where two headings read alike, the source gives them in different places.

Tests used:
[1] = tested on: P. aeruginosa SR27001 (multi-resistant Pseudomonas aeruginosa; IMP-1 producing strain); assay: Antimicrobial activity in vitro (MIC) of the in vivo test compounds; assay type: cell-based; details: addition of Tf
Procedure: (§1) Measurement of Minimum Inhibitory Concentration (MIC, μg/ml) was conducted according to the standard method of the Japan Society for Chemotherapy and the amount of bacteria for inoculation was 1000 cfu/spot, and sensitive disc medium was used as the test medium, and conducted using agar plate incubation.
The antimicrobial activity in vitro (MIC) of the test compounds was determined according to the method of Experimental Example 1.

[2] = tested on: P. aeruginosa SR27001 (multi-resistant Pseudomonas aeruginosa; IMP-1 producing strain); assay: Antimicrobial activity in vivo, mouse intraperitoneal infection, ED50 from survival rate; details: Mice (ICR type, male, 5 weeks), intravenous administration in twice from 1.5 h after infection, survival rate after 7 days
Procedure: The antimicrobial activity in vivo of the present compound (I) was determined.
Mice (ICR type, male, 5 weeks) were inoculated intraperitoneally with P. aeruginosa SR27001 (multi-resistant Pseudomonas aeruginosa; IMP-1 producing strain) to raise infection. One and half hours after, mice were treated with intravenious administration in twice, and then the ED50 value was calculated based on the survival rate after 7 days.

[3] = tested on: Stenotrophomonas maltophilia SR21970; assay: Minimum Inhibitory Concentration (MIC), agar plate incubation, CLSI method; assay type: cell-based
Procedure: (§2) The antimicrobial activity in vitro of the present compound (I) was determined.
Measurement of Minimum Inhibitory Concentration (MIC, μg/ml) was conducted according to the CLSI (Clinical and Laboratory Standards Institute) and the amount of bacteria for inoculation was 10000 cfu/spot, and Mueller-Hinton agar medium was used as the test medium, and conducted using agar plate incubation.
(§3) In the tables, the unit of the values of inhibitory activity is μg/ml.

[4] = tested on: Pseudomonas aeruginosa SR24; assay: Minimum Inhibitory Concentration (MIC), agar plate incubation, Japan Society for Chemotherapy standard method; assay type: cell-based
Procedure: as §2, §1, §3

[5] = tested on: Acinetobacter baumannii SR24396; assay: as above; assay type: cell-based
Procedure: as §2, §1, §3

[6] = tested on: Klebsiella pneumoniae ATCC 700603; assay: as above; assay type: cell-based
Procedure: as §2, §1, §3

[7] = tested on: Pseudomonas aeruginosa SR27060; assay: as above; assay type: cell-based
Procedure: as §2, §1, §3

[8] = Pseudomonas aeruginosa, read-out: MIC
[9] = Pseudomonas aeruginosa, read-out: ED50
[10] = Stenotrophomonas maltophilia SR21970, L-1, MBL producer strain (carbapenem resistant strain), 10000 cfu/spot, Mueller-Hinton agar medium, read-out: Minimum Inhibitory Concentration (MIC)
[11] = Pseudomonas aeruginosa SR24, no enzyme, ceftazidime sensitive strain, 1000 cfu/spot, sensitive disc medium, read-out: Minimum Inhibitory Concentration (MIC)
[12] = Acinetobacter baumannii SR24396, no enzyme, 1000 cfu/spot, sensitive disc medium, read-out: Minimum Inhibitory Concentration (MIC)
[13] = ATCC700603, Klebsiella pneumoniae ATCC 700603, SHV-18, ESBL producer strain, 1000 cfu/spot, sensitive disc medium, read-out: Minimum Inhibitory Concentration (MIC)
[14] = Pseudomonas aeruginosa SR27060, IMP-1, MBL producer strain (carbapenem resistant strain), 1000 cfu/spot, sensitive disc medium, read-out: Minimum Inhibitory Concentration (MIC)
[15] = Stenotrophomonas maltophilia SR21970, L-1, MBL producer strain (carbapenem resistant strain), 10000 cfu/spot, Mueller-Hinton agar medium
[16] = Pseudomonas aeruginosa SR24, no enzyme, ceftazidime sensitive strain, 1000 cfu/spot, sensitive disc medium
[17] = Acinetobacter baumannii SR24396, no enzyme, 1000 cfu/spot, sensitive disc medium
[18] = Klebsiella pneumoniae ATCC 700603, SHV-18, ESBL producer strain, 1000 cfu/spot, sensitive disc medium
[19] = Pseudomonas aeruginosa SR27060, IMP-1, MBL producer strain (carbapenem resistant strain), 1000 cfu/spot, sensitive disc medium
[20] = Stenotrophomonas maltophilia, SR21970, read-out: Minimum Inhibitory Concentration (MIC)
[21] = Pseudomonas aeruginosa, SR24, read-out: Minimum Inhibitory Concentration (MIC)
[22] = Acinetobacter baumannii, SR24396, read-out: Minimum Inhibitory Concentration (MIC)
[23] = Klebsiella pneumoniae, ATCC700603, read-out: Minimum Inhibitory Concentration (MIC)
[24] = Pseudomonas aeruginosa, SR27060, read-out: Minimum Inhibitory Concentration (MIC)

Row | SMILES | MIC [3, 10] [µg/mL] | MIC [4, 11] [µg/mL] | MIC [5, 12] [µg/mL] | MIC [6, 13] [µg/mL] | MIC [7, 14] [µg/mL] | Minimum Inhibitory Concentration (MIC) [3, 15] [µg/mL] | Minimum Inhibitory Concentration (MIC) [4, 16] [µg/mL] | Minimum Inhibitory Concentration (MIC) [5, 17] [µg/mL] | Minimum Inhibitory Concentration (MIC) [6, 18] [µg/mL] | Minimum Inhibitory Concentration (MIC) [7, 19] [µg/mL] | other results
1 | CO/N=C(\C(=O)N[C@@H]1C(=O)N2C(C(=O)[O-])=C(C[N+]3(C)CCCC3)CS[C@H]12)c1csc(N)n1 [CFPM, cefepime hydrochloride hydrate, reference compound] |  |  |  |  |  |  |  |  |  |  | MIC [1, 8]: > 64 µg/mL; ED50 [2, 9]: > 100 mg/kg
2 | C[C@H](O/N=C(\C(=O)N[C@@H]1C(=O)N2C(C(=O)[O-])=C(C[N+]34CCC[C@H]3CN(C(=O)c3ccc(O)c(O)c3Cl)CC4)CS[C@H]12)c1csc(N)n1)C(=O)[O-].[Na+] (stereo partly drawn) [Compound I-13] |  |  |  |  |  |  |  |  |  |  | MIC [1, 8]: 1 µg/mL; ED50 [2, 9]: 4.22 mg/kg
3 | CC(C)(ON=C(C(=O)NC1C(=O)N2C(C(=O)[O-])=C(C[N+](C)(C)C3CCN(C(=O)c4ccc(O)c(O)c4Cl)C3)CSC12)c1csc(N)n1)C(=O)[O-].[Na+] (stereo not drawn) [Compound I-20] |  |  |  |  |  |  |  |  |  |  | MIC [1]: 2 µg/mL; ED50 [2]: 5.48 mg/kg
4 | CC(C)(O/N=C(\C(=O)N[C@@H]1C(=O)N2C(C(=O)O)=C(C[N+]3(CCNC(=O)c4ccc(O)c(O)c4F)CCCC3)CS[C@H]12)c1csc(N)n1)C(=O)[O-] [II-29] | 0.5 (≈ 0.68 µM) | 0.125 (≈ 0.17 µM) | 0.25 (≈ 0.34 µM) | 0.125 (≈ 0.17 µM) | 0.5 (≈ 0.68 µM) |  |  |  |  |  | 
5 | CC(C)(O/N=C(\C(=O)N[C@@H]1C(=O)N2C(C(=O)O)=C(C[N+]3(C)[C@@H]4CC[C@H]3C[C@@H](NC(=O)c3ccc(O)c(O)c3F)C4)CS[C@H]12)c1csc(N)n1)C(=O)[O-] (stereo partly drawn) [II-36] | 1 (≈ 1.31 µM) | 0.25 (≈ 0.328 µM) | 0.25 (≈ 0.328 µM) | 0.5 (≈ 0.656 µM) | 0.5 (≈ 0.656 µM) |  |  |  |  |  | 
6 | C[N+]1(CC2=C(C(=O)[O-])N3C(=O)[C@@H](NC(=O)/C(=N\O[C@@H](CC(=O)[O-])C(=O)[O-])c4csc(N)n4)[C@H]3SC2)[C@@H]2CC[C@H]1C[C@@H](NC(=O)c1ccc(O)c(O)c1F)C2.[Na+].[Na+] (stereo partly drawn) [II-37] |  |  |  |  |  | 0.5 | 0.25 | 0.25 | 0.5 | 0.25 | 
7 | CC(C)(O/N=C(\C(=O)N[C@@H]1C(=O)N2C(C(=O)O)=C(C[N+]3(C)[C@@H]4CC[C@H]3C[C@@H](NC(=O)c3cc(O)c(O)c(F)c3)C4)CS[C@H]12)c1csc(N)n1)C(=O)[O-] (stereo partly drawn) [II-47] | 0.5 (≈ 0.656 µM) | 0.063 (≈ 0.0827 µM) | 0.25 (≈ 0.328 µM) | 0.25 (≈ 0.328 µM) | 0.25 (≈ 0.328 µM) |  |  |  |  |  | 
8 | C[N+]1(CC2=C(C(=O)[O-])N3C(=O)[C@@H](NC(=O)/C(=N\O[C@@H](CC(=O)[O-])C(=O)[O-])c4csc(N)n4)[C@H]3SC2)[C@@H]2CC[C@H]1C[C@@H](NC(=O)c1cc(O)c(O)c(F)c1)C2.[Na+].[Na+] (stereo partly drawn) [II-48] |  |  |  |  |  | 0.5 | 0.063 | 0.125 | 0.25 | 0.25 | 
9 | CC(C)(O/N=C(\C(=O)N[C@@H]1C(=O)N2C(C(=O)O)=C(C[N+]3(CCNC(=O)c4cc(O)c(O)c(Cl)c4)CCCC3)CS[C@H]12)c1csc(N)n1)C(=O)[O-] [II-49] | 0.5 (≈ 0.665 µM) | 0.125 (≈ 0.166 µM) | 0.125 (≈ 0.166 µM) | 0.125 (≈ 0.166 µM) | 0.5 (≈ 0.665 µM) |  |  |  |  |  | 
10 | CC(C)(O/N=C(\C(=O)N[C@@H]1C(=O)N2C(C(=O)O)=C(C[N+]3(C)[C@@H]4CC[C@H]3C[C@@H](NC(=O)c3cc(O)c(O)c(Cl)c3)C4)CS[C@H]12)c1csc(N)n1)C(=O)[O-] (stereo partly drawn) [II-50] |  |  |  |  |  |  |  |  |  |  | MIC [3, 20]: 0.5 µg/mL (≈ 0.642 µM); MIC [4, 21]: 0.125 µg/mL (≈ 0.161 µM); MIC [5, 22]: 0.25 µg/mL (≈ 0.321 µM); MIC [6, 23]: 0.25 µg/mL (≈ 0.321 µM); MIC [7, 24]: 0.5 µg/mL (≈ 0.642 µM)
11 | C[N+]1(CC2=C(C(=O)[O-])N3C(=O)C(NC(=O)C(=NOC(CC(=O)O)C(=O)[O-])c4csc(N)n4)C3SC2)C2CCC1CC(NC(=O)c1cc(O)c(O)c(Cl)c1)C2.[Na+] (stereo not drawn) [II-51] |  |  |  |  |  | 0.25 | 0.125 | 0.125 | 0.25 | 0.25 | 
12 | Nc1nc(/C(=N/O[C@@H](CC(=O)[O-])C(=O)[O-])C(=O)N[C@@H]2C(=O)N3C(C(=O)[O-])=C(C[N+]45CCC[C@H]4CN(C(=O)c4cc(O)c(O)c(Cl)c4)CC5)CS[C@H]23)cs1.[Na+].[Na+] (stereo partly drawn) [II-57] |  |  |  |  |  | 0.5 | 0.063 | 0.063 | 0.25 | 0.5 | 
13 | Nc1nc(C(=NOC(CC(=O)[O-])C(=O)[O-])C(=O)NC2C(=O)N3C(C(=O)[O-])=C(C[N+]45CCC(CNC(=O)c6ccc(O)c(O)c6Cl)(CC4)CC5)CSC23)cs1.[Na+].[Na+] (stereo not drawn) [II-58] |  |  |  |  |  | 0.5 | 0.25 | 0.125 | 0.5 | 0.5 | 
14 | CC[C@H](O/N=C(\C(=O)N[C@@H]1C(=O)N2C(C(=O)O)=C(C[N+]34CCC(CNC(=O)c5ccc(O)c(O)c5Cl)(CC3)CC4)CS[C@H]12)c1csc(N)n1)C(=O)[O-] [II-59] | 1 (≈ 1.28 µM) | 0.25 (≈ 0.321 µM) | 0.125 (≈ 0.161 µM) | 0.5 (≈ 0.642 µM) | 0.5 (≈ 0.642 µM) |  |  |  |  |  | 
15 | CC(C)(O/N=C(\C(=O)N[C@@H]1C(=O)N2C(C(=O)O)=C(C[N+]3(C)[C@@H]4CC[C@H]3C[C@@H](NC(=O)c3ccc(O)c(O)c3Cl)C4)CS[C@H]12)c1nsc(N)n1)C(=O)[O-] (stereo partly drawn) [II-63] | 0.5 (≈ 0.642 µM) | 0.063 (≈ 0.0808 µM) | 0.125 (≈ 0.16 µM) | 1 (≈ 1.28 µM) | 0.5 (≈ 0.642 µM) |  |  |  |  |  | 
16 | CC(C)[C@H](O/N=C(\C(=O)N[C@@H]1C(=O)N2C(C(=O)O)=C(C[N@+]3(C)[C@@H]4CC[C@H]3C[C@@H](NC(=O)c3ccc(O)c(O)c3Cl)C4)CS[C@H]12)c1csc(N)n1)C(=O)[O-] [III-3] | 0.5 (≈ 0.631 µM) | 0.125 (≈ 0.158 µM) | 0.125 (≈ 0.158 µM) | 0.25 (≈ 0.316 µM) | 0.5 (≈ 0.631 µM) |  |  |  |  |  | 
17 | CC(C)(O/N=C(\C(=O)N[C@@H]1C(=O)N2C(C(=O)O)=C(C[N+]34CCCC3(CNC(=O)c3ccc(O)c(O)c3Cl)CCC4)CS[C@H]12)c1csc(N)n1)C(=O)[O-] (stereo partly drawn) [III-5] |  |  |  |  |  |  |  |  |  |  | MIC [3, 20]: 0.25 µg/mL (≈ 0.321 µM); MIC [4, 21]: 0.125 µg/mL (≈ 0.161 µM); MIC [5, 22]: 0.25 µg/mL (≈ 0.321 µM); MIC [6, 23]: 0.125 µg/mL (≈ 0.161 µM); MIC [7, 24]: 0.5 µg/mL (≈ 0.642 µM)
18 | C[N+]1(CC2=C(C(=O)[O-])N3C(=O)C(NC(=O)C(=NOC(CC(=O)O)C(=O)[O-])c4csc(N)n4)C3SC2)C2CCC1CC(NC(=O)c1ccc(O)c(O)c1C(F)(F)F)C2.[Na+] (stereo not drawn) [III-14] |  |  |  |  |  | 0.25 | 0.25 | 0.125 | 0.5 | 0.5 | 
